What all share (assay): NCI-60 cell line screen, 48 h
Assay [1] concerns IGROV1 ovarian.
In assay [2] the test system is HT29 colon.
Assay [3] deals with HCT-116 colon.
In assay [4] the test system is OVCAR-8 ovarian.
The subject of assay [5] is TK-10 renal.
In assay [6] the test system is UACC-62 melanoma.
For assay [7], the system named is RPMI-8226 leukemia.
In assay [8] the test system is SN12C renal.
Assay [9] deals with SK-MEL-28 melanoma.
Assay [10] has as its system SNB-19 CNS.

SMILES strings stand for the structures. Several values for one entry are separate records, joined by “and”; a condition that tells them apart may be missing. Identical values can stand only once.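 Five concentrations, 48 hours, 96-well plates. GI50: concentration for 50% inhibition of growth. TGI is the concentration that stops growth completely.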

Regarding `O=c1oc2ccc(Cl)cc2c(=O)n1-c1ccc(I)cc1F`, the GI50 in [1] was 0.19 µM; in assay [2], 3.41 µM; in assay [3], 0.255 µM; in assay [4] it was 0.323 µM; in [5] it was 0.605 µM; in assay [6] it was 0.104 µM. The GI50 in [7] was 0.0907 µM; in assay [8], 0.204 µM; in assay [9] it was 0.178 µM; in [10], 0.206 µM. In addition, the TGI in assay [1] was over 42.3 µM; in assay [2], 22.6 µM; in assay [3], 1.35 µM; in assay [4], 15 µM; in assay [5] it was 11.4 µM; in assay [6], 0.788 µM. Also, the TGI was 0.436 µM in assay [7], 3.07 µM in assay [8], 2.01 µM in [9] and over 100 µM in assay [10].
Regarding `CC(=O)C1=C([O-])C(C)OC1=O.CC(=O)C1=C([O-])C(C)OC1=O.[NH-]C1CCCC[C@H]1[NH-].[Pt+4]` (stereo unspecified), the GI50 in assay [1] was over 100 µM; in assay [2], 63.3 µM; in assay [3] it was 45.6 µM; in assay [4], over 100 µM; in assay [5], over 100 µM; in assay [6] it was 42.3 µM. In addition, the GI50 in assay [7] was 8.72 µM; in [8] it was 41.6 µM; in [9], 43.8 µM; in assay [10] it was over 100 µM. Besides, the TGI in [1], in [2], in assay [3], in [4], in assay [5] and in assay [6] was over 100 µM in each case. Moreover, the TGI in assay [7], in assay [8], in assay [9] and in assay [10] was over 100 µM each time.
As for `N#CC1C(N)=NNC12Nc1ccccc1N2` (stereo unspecified), the GI50 in [1] was 11.9 µM; in assay [3], 34.1 µM; in assay [4], 0.2 µM; in assay [5] it was 30.7 µM; in assay [6], 3.28 µM; in [7], 2.91 µM. Further, the GI50 is 27.9 µM in [9] and 17.8 µM in [10]. The TGI was 71.3 µM in assay [1]; over 100 µM in assay [3]; 21.4 µM in [4]; 73.3 µM in assay [5]; 33.8 µM in [6]; 7.8 µM in assay [7]. The TGI was over 100 µM in assay [9] and 91 µM in assay [10].
Take `CN(C)c1ccc(N=Nc2c([O-])ccc3ccccc23)cc1.[C-]#[O+].[C-]#[O+].[Ir]`: the GI50 in [1] was 17.9 µM; in assay [2] it was 28.5 µM; in assay [3], 19.5 µM; in [4], 25 µM; in assay [5] it was 23.8 µM; in assay [6] it was 21.5 µM. Besides, the GI50 in [7] is 22.7 µM; in [8], 17 µM; in assay [9] it was 26.3 µM; in [10] it was over 100 µM. The TGI in [1] is 52.7 µM; in assay [2], over 73.1 µM; in [3], 38.4 µM; in assay [4], 65.4 µM; in assay [5], 51.7 µM; in assay [6], 55.6 µM. Moreover, the TGI in assay [7] was over 65.1 µM; in assay [8], 34.5 µM; in [9] it was 65.4 µM; in [10], over 100 µM.
Turning to `Nc1nc(OCc2ccccc2)nc2[nH]ncc12`, the GI50 was 32.5 µM in assay [1]; 28.6 µM in assay [2]; 19.7 µM in [3]; over 100 µM in assay [4]; 1.39 µM in assay [5]; 14.4 µM in assay [6]. In addition, the GI50 in assay [7] is 15.2 µM; in assay [8] it was 13.9 µM; in [9], 17 µM; in assay [10], 26.3 µM. Also, the TGI was over 100 µM in assay [1]; 77.6 µM in [2]; 39 µM in assay [3]; over 100 µM in [4]; 14.2 µM in assay [5]; 32.1 µM in assay [6]. Also, the TGI in [7] was 38.6 µM; in [8], 28.5 µM; in assay [9] it was 35.2 µM; in [10], 83.2 µM.
On to `CCc1c2c(nc3cccc(N)c13)-c1cc3c(c(=O)n1C2)COC(=O)[C@]3(O)CC`, for which the GI50 is 0.137 µM and 0.0298 µM in [1]; 0.00224 µM in assay [4]; under 0.001 µM in assay [6]; 0.0932 µM in assay [7]; under 0.001 µM in assay [8]; 0.113 µM and 0.034 µM in assay [9]. For the same molecule, the GI50 in [10] is 0.00176 µM. Besides, the TGI is 20.8 µM in assay [1]; 0.655 µM in assay [2]; over 100 µM in assay [4]; 0.748 µM in assay [5]; 0.56 µM in assay [7]; 38.7 µM in [8]. The TGI in [9] was over 100 µM; in assay [10] it was 0.0512 µM.
Regarding `Nc1nc(Nc2cccc(F)c2)nc2ccccc12`, the GI50 in assay [1] was 38.7 µM; in assay [2], 21.4 µM; in [3], 18.1 µM; in [4], 31.9 µM; in assay [5] it was 39.3 µM; in [6] it was 17.8 µM. Moreover, the GI50 is 23.1 µM in assay [7], 32.8 µM in assay [8], 15 µM in [9] and 35.3 µM in assay [10]. Moreover, the TGI in assay [1] was over 100 µM; in [2] it was 39.3 µM; in assay [3], 46.4 µM; in assay [4] it was over 100 µM; in assay [5] it was 90.3 µM; in [6] it was 38.3 µM. Also, the TGI is 71.1 µM in assay [7], over 100 µM in assay [8], 29 µM in assay [9] and over 100 µM in assay [10].
As to `Cc1ccc2c(c1)ncn2-c1ncnc2c1CC(C)c1ccccc1N2C` (stereo unspecified), the GI50 in assay [1] was 0.256 µM; in assay [2] it was 0.0922 µM; in assay [3] it was 0.0669 µM; in assay [4], 0.381 µM; in assay [5], 11.6 µM; in assay [7], 0.149 µM. For the same molecule, the GI50 was 0.444 µM in assay [8], 1.84 µM in [9] and 0.17 µM in assay [10]. In addition, the TGI is 7.68 µM in assay [1]; 14.5 µM in assay [2]; 13 µM in [3]; 22.9 µM in assay [4]; 24.3 µM in [5]; 1.82 µM in [7]. Moreover, the TGI in assay [8] is 15.6 µM; in assay [9], 15.6 µM; in [10] it was 20.7 µM.
Regarding `CC(=O)OC1C2(CC3N4C(=O)C5(CO)SSC4(CC31O)C(=O)N5C)OC(C)C(C)(C)C2=O` (stereo unspecified), the GI50 is 0.117 µM in assay [1]; under 0.01 µM in assay [2]; 0.0696 µM in assay [3]; under 0.0495 µM in assay [4]; 1.73 µM in assay [5]; 0.0103 µM in [6]. The GI50 in [7] is under 0.0398 µM; in [8], under 0.0114 µM; in assay [9] it was 0.0141 µM; in assay [10] it was 0.0184 µM. The TGI in assay [1] was 0.577 µM; in [3], 0.212 µM; in assay [4], 0.222 µM; in assay [5] it was 3.27 µM; in assay [6], 0.0322 µM; in assay [8], 0.05 µM. Also, the results for the TGI in assay [9] and in [10] were 0.0696 µM and 0.0666 µM, respectively.
Regarding `CC[CH2][Pb]([CH2]CC)([CH2]CC)[NH]S(=O)(=O)c1ccc(C)cc1`, the GI50 in [1] is 0.0723 µM; in assay [2], 0.0546 µM; in assay [3] it was 0.0452 µM; in [5], 0.0971 µM; in assay [6], 0.0272 µM; in assay [7], 0.0259 µM. Further, the results for the GI50 in assay [8], in assay [9] and in [10] were 0.0681 µM, 0.0764 µM and 0.0349 µM, respectively. Moreover, the TGI was found to be 0.19 µM in assay [1]; 0.112 µM in assay [2]; 0.179 µM in assay [3]; 0.36 µM in assay [5]; 0.0995 µM in assay [6]; 0.131 µM in assay [7]. In addition, the TGI in assay [8] amounted to 0.172 µM; in [9], 0.241 µM; in assay [10] it was 0.143 µM.
Consider `O=C1CC2C(=O)N(Cc3ccccc3)C1C(S(=O)(=O)c1ccccc1)C2S(=O)(=O)c1ccccc1` (stereo unspecified), for which the TGI came to 36 µM in [1]; 5.1 µM in assay [2]; 15.9 µM in assay [3]; 5.19 µM in [4]; 3.95 µM in [5]; 5.22 µM in assay [6]. Also, the TGI was 18.4 µM in assay [7], 3.18 µM in assay [8] and 3.72 µM in assay [9].
Take `Cc1c2ccncc2c(C)c2c1[nH]c1ccc(OC(C)(C)C)cc12`: the TGI turned out to be 26.8 µM in [1]; 7.09 µM in [2]; 3.36 µM in [3]; 9.75 µM in [4]; 18.1 µM in [5]; 5.43 µM in assay [6]. Besides, the TGI turned out to be 5.49 µM in assay [7], 3.77 µM in [9] and 7.53 µM in assay [10].
On to `CCC1CN2CCc3cc(OC)c(OC)cc3C2CC1CC1c2cc(OC)c(OC)cc2CCN1C(=O)CNC(=O)OC(C)(C)C` (stereo unspecified), for which the TGI was 74.6 µM in assay [1]; over 100 µM in [2]; over 100 µM in assay [4]; 85.5 µM in assay [5]; 56.4 µM in assay [6]; 48.6 µM in assay [7]. The TGI in assay [8] amounted to 90 µM; in assay [9], 61 µM; in assay [10] it was 53.5 µM.
Turning to `COc1ccc(COCC(Cn2ccnc2)OCc2ccc(C(=O)O)cc2)cc1` (stereo unspecified), the TGI in assay [1], in assay [2], in assay [3], in assay [4], in [5] and in assay [6] was over 100 µM throughout. Also, the TGI in assay [7], in assay [8] and in assay [9] was over 100 µM each time.
In the case of `O=C(O)c1c[nH]cc1C(=O)O`, the TGI in assay [1], in assay [2], in [3], in assay [4], in [5] and in [6] was over 100 µM each time. Besides, the TGI in assay [7], in [8] and in assay [10] was over 100 µM each time.
Take `N/N=C(\Cc1ccccc1)NN=C(N)N`: the TGI in [1], in assay [2], in [3], in assay [4], in assay [5] and in assay [6] was over 100 µM each time. For the same molecule, the TGI in [7], in assay [8] and in assay [9] was over 100 µM throughout.
For `CC(C)(Br)C(=O)/C=C/c1ccccc1`, the TGI in [1] came out at 1.79 µM; in assay [2] it was 18.3 µM; in assay [4] it was 5.2 µM; in [5] it was 37.9 µM; in assay [6], 19 µM; in assay [7], 3.14 µM. The figures for the TGI in [8], in [9] and in [10] were 22.5 µM, 28.9 µM and 78.3 µM, respectively.
For the molecule `CCCCCCCCCCCCC(=O)[O-].CCCCCCCCCCCCC(=O)[O-].CCCCCCCCCCCCC(=O)[O-].CCCCCCCCCCCCC(=O)[O-].[Mo+2].[Mo+2]`, the GI50 in assay [1] was 15.5 µM; in [2], 12.6 µM; in assay [3], 8.98 µM; in assay [4], 11.9 µM; in assay [5], 32.6 µM; in assay [6] it was 11.7 µM. For the same molecule, the results for the GI50 in assay [7], in assay [9] and in assay [10] were 4.08 µM, 21.4 µM and 26.5 µM, respectively. The TGI in [1] turned out to be 40.2 µM; in assay [2], 27.1 µM; in assay [3], 27.3 µM; in [4] it was 31.3 µM; in [5], 94.6 µM; in assay [6] it was 26.9 µM. The TGI in [7] is 37 µM; in assay [9], 65.7 µM; in assay [10], over 100 µM.
